According to paper PMC11197535, “Reprogramming of phytopathogen transcriptome by a non-bactericidal pesticide residue alleviates its virulence in rice” (Fundamental Research, 2022):
pKd: −log10 of the molar value.

Molecular target: T1, TroK (Burkholderia plantarii, UniProt A0A0B6RRK0)
T1 construct: gene BGL_1c34780
Experiment: SPR (Biacore T200, multiple cycle kinetics)
Format: binding
Conditions: TroK immobilised on CM7 chip by amine coupling; 10 mM PBS, pH 7.4, 150 mM NaCl, DMSO; free ATT
Description: SPR (Biacore T200, multiple cycle kinetics) on TroK | thiazole could directly bind to the purified TroK in the transmembrane region

T1 sequence (A0A0B6RRK0 entry or part of it): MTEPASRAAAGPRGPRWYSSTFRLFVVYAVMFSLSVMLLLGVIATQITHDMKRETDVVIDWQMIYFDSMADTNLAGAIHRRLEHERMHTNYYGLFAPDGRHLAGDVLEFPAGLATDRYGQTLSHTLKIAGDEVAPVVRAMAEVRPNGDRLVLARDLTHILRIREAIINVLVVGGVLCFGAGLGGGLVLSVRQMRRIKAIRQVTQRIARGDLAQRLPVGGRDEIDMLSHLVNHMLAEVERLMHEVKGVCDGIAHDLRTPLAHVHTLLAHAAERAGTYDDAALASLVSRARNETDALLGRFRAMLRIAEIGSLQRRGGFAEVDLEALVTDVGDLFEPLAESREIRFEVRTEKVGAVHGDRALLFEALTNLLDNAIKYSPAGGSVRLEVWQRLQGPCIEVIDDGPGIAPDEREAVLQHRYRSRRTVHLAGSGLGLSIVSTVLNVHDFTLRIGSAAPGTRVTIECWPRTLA

Nc1nnc(S)s1 [ATT, 5-Amino-1,3,4-thiadiazole-2-thiol]
pKd: 6.14
